Source: patent publication US20070155764A1, “NOVEL SUBSTITUTED PYRIMIDINYLOXY UREAS USEFUL AS INHIBITORS OF PROTEIN KINASES” (KALYPSYS, INC., priority 2005, published 2007)

How the values were obtained:
Type in all cases: biochemical
[1] = molecular target: T1, human B-Raf protein kinase (Homo sapiens, UniProt P15056); assay: In vitro B-Raf/Mek1 composite kinase assay; conditions: recombinant GST-tagged human B-Raf (Δ1-415) with inactive Mek1, 2 μM ATP
T1 construct: GST (N); purchased Upstate Inc. 14-530 (B-Raf); 14-420 (Mek1)
Experimental: In Vitro B-Raf/Mek1 Composite Kinase Assay
2.5 μl of B-Raf kinase buffer (20 mM MOPS [pH 7.2], 25 mM sodium glycerophosphate, 2 mM EGTA [pH 8.0], 1 mM sodium orthovanadate, 1 mM dithiothreitol, 10 mM MgCl2, 0.03% Brij-35, 0.3 mg/ml bovine serum albumin) containing 1 ng of recombinant, N-terminal GST-tagged human B-Raf protein kinase (Δ1-415, Upstate Inc., cat. #14-530) is dispensed to wells of a 1536 multi-well white solid plate. 60 nl of 100× concentration of test compound in DMSO is dispensed to the well by passive pin transfer and incubated for 15 minutes at room temperature (approx. 22° C.). […] The assay plates are sealed and maintained in a humidified environment. After 2 hours, 2.5 μl of PKLight protein kinase assay reagent (Cambrex, cat. #LT07-501) is dispensed. After an additional 5 minute incubation at room temperature, luminescence activity is measured on a Molecular Devices Analyst multi-mode plate reader or other suitable plate reader. Kinase inhibition results in less ATP depletion, and therefore increased luminescence signal. Negative control activity is measured with DMSO lacking any test compound. The positive control is [N-(3-trifluoromethyl-4-chlorophenyl)-N′-(4-(2-methylcarbamoyl-pyridin-4-yl)oxyphenyl)urea], aka Bay 43-9006. Efficacy is measured as a percentage of positive control activity.

VEGFR2 kinase = molecular target: T2, VEGFR2 kinase (Homo sapiens, UniProt P35968); assay: In vitro VEGFR2 kinase assay; conditions: ADP Quest assay, poly Glu:Tyr substrate, 60 μM ATP
T2 construct: purchased Invitrogen Inc PV3660
Experimental: (§1) In vitro vegfr2 and PDGFRβ Kinase Assays
(§2) 2.5 μl of ADP Quest assay buffer (DiscoverX Inc., cat. #90-0071) containing 20 ng VEGFR2 kinase (Invitrogen Inc, cat. #PV3660) or 25 ng PDGFRβ kinase (Invitrogen Inc., cat. #P3082) is dispensed to wells of a 1536 multi-well, black solid plate. 60 nl of 100× concentration of test compound in DMSO is dispensed to the well by passive pin transfer and incubated for 10 minutes at room temperature (approx. 22° C.). 2.5 μl of ADP Quest assay buffer containing 0.25 μg of poly Glu:Tyr (4:1) substrate peptide (Upstate Inc., cat. #12-440) and 60 μM ATP is then dispensed and the kinase reaction allowed to incubate at 30° C. for 2 hours. The assay plates are sealed and maintained in a humidified environment. After the 2 hour incubation, 2 μl of ADP Quest assay reagent A, followed by 2 μl of assay reagent B, is added. After an additional 30 minute incubation at room temperature, fluorescence intensity is measured on a Molecular Devices Aquest multi-mode plate reader or other suitable plate reader (fluorescence excitation filter: 530/25 [Peak (nm)/FWHM passband (nm)]; dichroic beamsplitter: 561 nm longpass; fluorescence emission filter: 580/10 [Peak (nm)/FWHM passband (nm)]. The assay measures the conversion of a non-fluoresecent molecule to fluorescent resorutin, which correlates with kinase activity. Negative control activity is measured with DMSO lacking any test compound. The positive control is [N-(3-trifluoromethyl-4-chlorophenyl)-N′-(4-(2-methylcarbamoyl-pyridin-4-yl)oxyphenyl)urea], aka Bay 43-9006. Efficacy is measured as a percentage of positive control activity.

PDGFRβ kinase = molecular target: T3, PDGFRβ kinase (Homo sapiens, UniProt P09619); assay: In vitro PDGFRβ kinase assay; conditions: ADP Quest assay, poly Glu:Tyr substrate, 60 μM ATP
T3 construct: purchased Invitrogen Inc. P3082
Experimental: as §1, §2

T1 sequence (P15056 416-766): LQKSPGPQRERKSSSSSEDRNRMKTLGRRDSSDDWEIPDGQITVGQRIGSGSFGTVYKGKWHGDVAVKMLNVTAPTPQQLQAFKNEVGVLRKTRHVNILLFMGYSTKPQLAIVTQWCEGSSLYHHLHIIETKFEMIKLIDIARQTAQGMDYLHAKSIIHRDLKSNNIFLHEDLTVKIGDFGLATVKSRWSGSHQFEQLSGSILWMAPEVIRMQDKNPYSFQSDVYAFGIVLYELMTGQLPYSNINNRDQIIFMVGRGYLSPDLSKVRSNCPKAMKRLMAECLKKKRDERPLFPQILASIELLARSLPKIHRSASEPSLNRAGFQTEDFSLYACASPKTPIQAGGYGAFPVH
T3 sequence (P09619 33-1106): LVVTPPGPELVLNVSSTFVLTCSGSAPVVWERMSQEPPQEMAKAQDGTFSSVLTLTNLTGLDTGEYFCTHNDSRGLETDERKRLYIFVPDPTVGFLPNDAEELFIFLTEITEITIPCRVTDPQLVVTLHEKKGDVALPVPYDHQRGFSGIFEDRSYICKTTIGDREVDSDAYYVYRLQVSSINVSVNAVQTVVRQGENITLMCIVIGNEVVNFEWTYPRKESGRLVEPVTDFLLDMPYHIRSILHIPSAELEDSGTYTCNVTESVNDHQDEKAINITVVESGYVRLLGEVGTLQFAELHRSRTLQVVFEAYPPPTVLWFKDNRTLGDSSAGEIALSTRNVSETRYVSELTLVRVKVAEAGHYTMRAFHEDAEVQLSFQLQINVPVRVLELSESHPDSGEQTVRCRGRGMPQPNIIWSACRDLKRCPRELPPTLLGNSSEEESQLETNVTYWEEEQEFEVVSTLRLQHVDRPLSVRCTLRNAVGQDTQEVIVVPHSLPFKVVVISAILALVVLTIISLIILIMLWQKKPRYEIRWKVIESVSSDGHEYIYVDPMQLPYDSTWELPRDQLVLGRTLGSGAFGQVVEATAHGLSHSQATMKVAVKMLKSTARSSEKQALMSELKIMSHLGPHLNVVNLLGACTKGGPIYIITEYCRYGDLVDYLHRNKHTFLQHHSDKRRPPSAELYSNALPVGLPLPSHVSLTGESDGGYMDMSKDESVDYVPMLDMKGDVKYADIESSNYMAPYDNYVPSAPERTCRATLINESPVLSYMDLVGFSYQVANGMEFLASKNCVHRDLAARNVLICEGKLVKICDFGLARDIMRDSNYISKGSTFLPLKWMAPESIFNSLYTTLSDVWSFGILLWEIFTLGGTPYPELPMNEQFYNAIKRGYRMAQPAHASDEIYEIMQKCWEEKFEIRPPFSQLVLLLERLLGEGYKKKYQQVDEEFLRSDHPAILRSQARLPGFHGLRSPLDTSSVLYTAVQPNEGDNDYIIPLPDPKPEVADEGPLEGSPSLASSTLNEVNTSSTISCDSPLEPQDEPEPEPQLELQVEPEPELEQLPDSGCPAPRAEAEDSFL
T2 sequence (P35968 20-1356): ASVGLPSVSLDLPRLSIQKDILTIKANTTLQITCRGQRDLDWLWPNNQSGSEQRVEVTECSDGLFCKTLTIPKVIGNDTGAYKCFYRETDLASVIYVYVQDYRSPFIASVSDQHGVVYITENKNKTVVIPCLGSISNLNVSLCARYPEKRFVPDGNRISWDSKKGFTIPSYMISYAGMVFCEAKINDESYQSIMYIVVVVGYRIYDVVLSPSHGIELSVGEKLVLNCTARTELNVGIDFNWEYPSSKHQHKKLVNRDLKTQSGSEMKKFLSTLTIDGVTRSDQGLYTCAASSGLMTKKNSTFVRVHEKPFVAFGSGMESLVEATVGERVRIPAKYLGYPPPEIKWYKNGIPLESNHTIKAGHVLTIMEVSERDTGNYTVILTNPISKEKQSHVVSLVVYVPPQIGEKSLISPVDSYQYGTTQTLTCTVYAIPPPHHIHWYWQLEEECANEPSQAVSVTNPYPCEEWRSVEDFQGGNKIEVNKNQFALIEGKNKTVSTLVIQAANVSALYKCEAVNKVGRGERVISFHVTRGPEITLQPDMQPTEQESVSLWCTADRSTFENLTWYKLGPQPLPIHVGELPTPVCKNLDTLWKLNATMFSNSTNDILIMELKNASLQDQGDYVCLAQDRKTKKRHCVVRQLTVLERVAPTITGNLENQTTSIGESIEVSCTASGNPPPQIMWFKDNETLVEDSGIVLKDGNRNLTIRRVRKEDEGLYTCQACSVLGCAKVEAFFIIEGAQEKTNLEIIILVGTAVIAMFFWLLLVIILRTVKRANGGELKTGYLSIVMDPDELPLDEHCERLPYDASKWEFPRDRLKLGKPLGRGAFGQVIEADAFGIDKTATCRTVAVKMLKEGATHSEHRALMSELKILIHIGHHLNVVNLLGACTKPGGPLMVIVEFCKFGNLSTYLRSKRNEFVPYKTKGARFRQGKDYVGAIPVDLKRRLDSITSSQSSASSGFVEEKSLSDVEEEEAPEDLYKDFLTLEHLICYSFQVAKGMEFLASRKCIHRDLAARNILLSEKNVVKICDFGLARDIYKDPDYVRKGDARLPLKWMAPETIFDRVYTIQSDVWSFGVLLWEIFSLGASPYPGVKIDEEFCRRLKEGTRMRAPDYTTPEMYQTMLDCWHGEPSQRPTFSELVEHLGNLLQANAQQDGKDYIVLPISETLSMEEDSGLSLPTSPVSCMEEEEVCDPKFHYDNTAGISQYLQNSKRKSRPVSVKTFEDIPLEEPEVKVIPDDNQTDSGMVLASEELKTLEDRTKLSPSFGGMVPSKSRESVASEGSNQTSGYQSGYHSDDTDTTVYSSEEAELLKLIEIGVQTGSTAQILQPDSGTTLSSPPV

Row | IC50 [1] [µM] | IC50 (VEGFR2 kinase) [µM] | IC50 (PDGFRβ kinase) [µM] | SMILES
1 | ≤ 10 | ≤ 10 | ≤ 10 | O=C(Nc1cccc(Oc2cc(-c3nnco3)ncn2)c1)Nc1cc(CN2CCOCC2)cc(C(F)(F)F)c1 [Example 33, 1-(3-(6-(1,3,4-Oxadiazol-2-yl)pyrimidin-4-yloxy)phenyl)-3-(3-(morpholinomethyl)-5-(trifluoromethyl)phenyl)urea]
2 | ≤ 10 | ≤ 10 | ≤ 10 | Cn1ncnc1-c1cc(Oc2cccc(NC(=O)Nc3ccc(Cl)c(C(F)(F)F)c3)c2)ncn1 [Example 16, 1-(4-Chloro-3-(trifluoromethyl)phenyl)-3-(3-(6-(1-methyl-1H-1,2,4-triazol-5-yl)pyrimidin-4-yloxy)phenyl)urea]
3 | > 10 | ≤ 10 | ≤ 10 | O=C(Nc1ccc(Oc2cc(-c3ncno3)ncn2)cc1)Nc1ccc(Cl)c(C(F)(F)F)c1 [Example 18, 1-(4-(6-(1,2,4-Oxadiazol-5-yl)pyrimidin-4-yloxy)phenyl)-3-(4-chloro-3-(trifluoromethyl)phenyl)urea]
4 | > 10 | ≤ 10 | ≤ 10 | Cc1cc(NC(=O)Nc2ccc(Oc3ccnc(-c4cnn(C)c4)n3)cc2)no1 [Example 105, 1-(4-(2-(1-Methyl-1H-pyrazol-4-yl)pyrimidin-4-yloxy)phenyl)-3-(5-methylisoxazol-3-yl)urea]
5 | ≤ 10 | ≤ 10 | ≤ 10 | O=C(Nc1cccc(Oc2cc(-c3ncn[nH]3)ncn2)c1)Nc1ccc(Cl)c(C(F)(F)F)c1 [Example 17, 1-(3-(6-(1H-1,2,4-Triazol-5-yl)pyrimidin-4-yloxy)phenyl)-3-(4-chloro-3-(trifluoromethyl)phenyl)urea]
6 | ≤ 10 | ≤ 10 | ≤ 10 | O=C(Nc1ccc(Oc2cc(-c3nnco3)ncn2)cc1)Nc1cc(C(F)(F)F)c(Cl)cc1OCCN1CCCC1 [Example 31, 1-(4-(6-(1,3,4-Oxadiazol-2-yl)pyrimidin-4-yloxy)phenyl)-3-(4-chloro-2-(2-(pyrrolidin-1-yl)ethoxy)-5-(trifluoromethyl)phenyl)urea]
7 | ≤ 10 | > 10 | > 10 | Cc1cc(Oc2ccc(NC(=O)Nc3ccc(Cl)c(C(F)(F)F)c3)cc2)nc(-n2ccnc2)n1 [Example 6, 1-(4-(2-(1H-imidazol-1-yl)-6-methylpyrimidin-4-yloxy)phenyl)-3-(4-chloro-3-(trifluoromethyl)phenyl)urea]
8 | ≤ 10 | ≤ 10 | ≤ 10 | O=C(Nc1cccc(Oc2cc(-c3ncno3)ncn2)c1)Nc1ccc(Cl)c(C(F)(F)F)c1 [Example 15, 1-(3-(6-(1,2,4-oxadiazol-5-yl)pyrimidin-4-yloxy)phenyl)-3-(4-chloro-3-(trifluoromethyl)phenyl)urea]
9 | ≤ 10 | ≤ 10 | ≤ 10 | Cc1nc(C)c(-c2cc(Oc3cccc(NC(=O)Nc4ccc(Cl)c(C(F)(F)F)c4)c3)ncn2)s1 [Example 29, 1-(4-Chloro-3-(trifluoromethyl)phenyl)-3-(3-(6-(2,4-dimethylthiazol-5-yl)pyrimidin-4-yloxy)phenyl)urea]
10 | ≤ 10 | ≤ 10 | ≤ 10 | CN(C(=O)Nc1ccc(Cl)c(C(F)(F)F)c1)c1ccc(Oc2ccnc(-c3nnco3)c2)cc1 [Example 110, 1-(4-(2-(1,3,4-Oxadiazol-2-yl)pyridin-4-yloxy)phenyl)-3-(4-chloro-3-(trifluoromethyl)phenyl)-1-methylurea]
11 | ≤ 10 | ≤ 10 | ≤ 10 | COc1ccc(C(F)(F)F)cc1NC(=O)Nc1cc(Oc2cc(-c3cnn(C)c3)ncn2)ccc1F [Example 95, 1-(2-Fluoro-5-(6-(1-methyl-1H-pyrazol-4-yl)pyrimidin-4-yloxy)phenyl)-3-(2-methoxy-5-(trifluoromethyl)phenyl)urea]
12 | ≤ 10 | ≤ 10 | ≤ 10 | CNC(=O)c1cc(Oc2ccc(N(C)C(=O)Nc3ccc(Cl)c(C(F)(F)F)c3)cc2)ccn1 [Example 114, 4-{4-[3-(4-Chloro-3-trifluoromethyl-phenyl)-1-methyl-ureido]-phenoxy}-pyridine-2-carboxylic acid methylamide]
13 | ≤ 10 | ≤ 10 | ≤ 10 | Cc1cn(-c2cc(NC(=O)Nc3ccc(Oc4cc(-c5cnn(C)c5)ncn4)cc3)cc(C(F)(F)F)c2)cn1 [Example 51, 1-(3-(4-Methyl-1H-imidazol-1-yl)-5-(trifluoromethyl)phenyl)-3-(4-(6-(1-methyl-1H-pyrazol-4-yl)pyrimidin-4-yloxy)phenyl)urea]
14 | ≤ 10 | ≤ 10 | ≤ 10 | Cn1cc(-c2nccc(Oc3cccc(NC(=O)Nc4ccc(OC(F)(F)F)cc4)c3)n2)cn1 [Example 79, 1-(3-(2-(1-Methyl-1H-pyrazol-4-yl)pyrimidin-4-yloxy)phenyl)-3-(4-(trifluoromethoxy)phenyl)urea]
15 | ≤ 10 | ≤ 10 | ≤ 10 | Cn1nnc(-c2cc(Oc3cccc(NC(=O)Nc4ccc(Cl)c(C(F)(F)F)c4)c3)ncn2)n1 [Example 20, 1-(4-Chloro-3-(trifluoromethyl)phenyl)-3-(3-(6-(2-methyl-2H-tetrazol-5-yl)pyrimidin-4-yloxy)phenyl)urea]
16 | ≤ 10 | ≤ 10 | ≤ 10 | CCN(CC)Cc1cc(NC(=O)Nc2cccc(Oc3cc(-c4nnco4)ncn3)c2)cc(C(F)(F)F)c1 [Example 25, 1-(3-(6-(1,3,4-Oxadiazol-2-yl)pyrimidin-4-yloxy)phenyl)-3-(3-((diethylamino)methyl)-5-(trifluoromethyl)phenyl)urea]
17 | > 10 | ≤ 10 | ≤ 10 | O=C(Nc1cccc(Oc2cc(-c3nnn[nH]3)ncn2)c1)Nc1ccc(Cl)c(C(F)(F)F)c1 [Example 19, 1-(3-(6-(1H-Tetrazol-5-yl)pyrimidin-4-yloxy)phenyl)-3-(4-chloro-3-(trifluoromethyl)phenyl)urea]
18 | ≤ 10 | ≤ 10 | ≤ 10 | Cc1cc(NC(=O)Nc2cc(Oc3cc(-c4cnn(C)c4)ncn3)ccc2F)no1 [Example 104, 1-(2-Fluoro-5-(6-(1-methyl-1H-pyrazol-4-yl)pyrimidin-4-yloxy)phenyl)-3-(5-methylisoxazol-3-yl)urea]
19 | ≤ 10 | ≤ 10 | ≤ 10 | CN1CCN(Cc2cc(NC(=O)Nc3ccc(Oc4ccnc(-c5nnco5)c4)cc3)cc(C(F)(F)F)c2)CC1 [Example 39, 1-(4-(2-(1,3,4-Oxadiazol-2-yl)pyridin-4-yloxy)phenyl)-3-(3-((4-methylpiperazin-1-yl)methyl)-5-(trifluoromethyl)phenyl)urea]
20 | ≤ 10 | > 10 | ≤ 10 | Cc1ccc(F)c(NC(=O)N(C)c2ccc(Oc3ccnc(-c4nnco4)c3)cc2)c1 [Example 112, 3-(2-Fluoro-5-methyl-phenyl)-1-methyl-1-[4-(2-[1,3,4]oxadiazol-2-yl-pyridin-4-yloxy)-phenyl]-urea]
21 | > 10 | ≤ 10 | ≤ 10 | COCCOc1ccc(NC(=O)Nc2ccc(Oc3cc(-c4nnco4)ncn3)cc2)cc1C(F)(F)F [Example 53, 1-(4-(6-(1,3,4-Oxadiazol-2-yl)pyrimidin-4-yloxy)phenyl)-3-(4-(2-methoxyethoxy)-3-(trifluoromethyl)phenyl)urea]
22 | ≤ 10 | ≤ 10 | ≤ 10 | N#CCn1cc(-c2cc(Oc3cccc(NC(=O)Nc4ccc(Cl)c(C(F)(F)F)c4)c3)ncn2)cn1 [Example 64, 1-(4-Chloro-3-(trifluoromethyl)phenyl)-3-(3-(6-(1-(cyanomethyl)-1H-pyrazol-4-yl)pyrimidin-4-yloxy)phenyl)urea]
